Measurements taken from article PMC11288311 (Cell chemical biology, 2022).

What was measured:
mouse LRH-1 = mouse LRH-1 (Mus musculus, UniProt P45448); assay: Activation of mouse LRH-1 in vitro
LRH-1 K520A = assay: Luciferase reporter assay with LRH-1 K520A mutant; assay type: cell-based, human; conditions: K520A mutation, 30 μM, 24 hours
[1] = tested on: human LRH-1 (hLRH-1) in the liver; assay: Liver gene expression
hLRH-1 enteroids = assay: Gene expression in TNF-stimulated humanized LRH-1 mouse intestinal enteroids; assay type: cell-based; conditions: 1 μM overnight, not observed in LRH-1-deficient enteroids
hLRH1 IEC Rag2-/- mice = assay: T cell transfer; assay type: in vivo, mouse; conditions: 20 mg/kg i.p., 16 days
[2] = tested on: endogenous LRH-1 in Huh7 hepatocytes; assay: qRT-PCR of LRH-1 targets in Huh7 hepatocytes; assay type: cell-based, human; conditions: Huh7, 24-hour treatment
[3] = Aqueous solubility by LC-MS in PBS; assay type: physicochemical; conditions: PBS pH 7.4, 25°C, 2 hours
LRH-1 LBD Y516A or K520A = assay type: binding, human; conditions: Y516A or K520A mutation

Chain of mouse LRH-1 (P45448 whole entry): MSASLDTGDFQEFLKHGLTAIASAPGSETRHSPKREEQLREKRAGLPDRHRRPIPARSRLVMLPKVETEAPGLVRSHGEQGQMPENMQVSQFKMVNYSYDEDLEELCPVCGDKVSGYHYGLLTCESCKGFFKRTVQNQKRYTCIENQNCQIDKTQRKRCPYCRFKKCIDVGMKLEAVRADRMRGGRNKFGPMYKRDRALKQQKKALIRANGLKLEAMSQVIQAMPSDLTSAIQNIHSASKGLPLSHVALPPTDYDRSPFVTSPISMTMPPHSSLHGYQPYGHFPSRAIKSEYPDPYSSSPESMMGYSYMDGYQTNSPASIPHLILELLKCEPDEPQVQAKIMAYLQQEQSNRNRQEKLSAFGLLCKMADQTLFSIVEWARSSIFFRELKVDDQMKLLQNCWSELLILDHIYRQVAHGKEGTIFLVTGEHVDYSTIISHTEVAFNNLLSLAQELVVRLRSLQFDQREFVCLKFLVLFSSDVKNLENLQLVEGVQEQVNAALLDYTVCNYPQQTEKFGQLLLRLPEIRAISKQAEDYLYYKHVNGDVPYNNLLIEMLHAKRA

With `C=C(c1ccccc1)[C@@]12CC[C@@H](O)[C@@H]1CC(CCCCCCCCCC(=O)O)=C2c1ccccc1` [Compound 10CA] the “Activation of mouse LRH-1” value (mouse LRH-1) was “poor activators of mouse LRH-1”, the “Reduction of activation versus WT LRH-1” value (LRH-1 K520A) was “around 60%” and the “Liver expression of lipogenic genes (Fasn, Acacb, Scd1)” value ([1]; 0.1, 1 or 10 mg/kg, five i.p. injections over three days) was “downregulation of lipogenic genes”. For the same compound, the “Liver expression of Srebf1” value ([1]; not statistically significant, p = 0.09 versus vehicle) was “trends lower”, the “Expression of Cyp11a1 and Il-10” value (hLRH-1 enteroids) was “induces expression” and the “Body weight at end of study relative to mean pre-treatment body weight” value (hLRH1 IEC Rag2-/- mice) was at most 1%. For the same compound, the Colon histology scores (hLRH1 IEC Rag2-/- mice) was “markedly improved”, the “Expression of LRH-1 targets Cyp8b1, Cyp11a1, Cyp11b1 in colonic crypts” value (hLRH1 IEC Rag2-/- mice) was “strong upregulation” and the “Expression of LRH-1 targets SHP (NR0B2) and PLK3” value [2] was “dose-dependently upregulates”. The “Expression of de novo lipogenesis targets SREBF1, ACACB, FASN, SCD1” value [2] was “downregulates”.

For `C=C(c1ccccc1)[C@@]12CC[C@@H](O)[C@@H]1CC(CCCCCC)=C2c1ccccc1` [RJW100], the Aqueous solubility limit [3] was 2.9 µM and the “Decrease in binding affinity, mutant versus WT LRH-1” value (LRH-1 LBD Y516A or K520A) was “insensitive or less sensitive”.
